Laboratory results taken from patent US6806267B1, “Apoptosis-inducing compounds” (priority 1998, dated 2004).

Experiments:
Format in all cases: cell-based, human
K562 cells [1] = experiment: Apoptosis in K562 cells, cytospin and staining; conditions: K562, 16 hours
Cytochrome C = Cytochrome C Western blot, HL-60 cytosol; conditions: HL-60 cells
Experimental: Cells (15×10^6) were harvested by centrifugation at 1800 g for 10 min at 4° C. After being washed once with ice-cold phosphate-buffered saline, the cell pellet was suspended in 100 μl of ice-cold buffer A (20 mM Hepes, pH 7.5, 10 mM KCl, 1.5 mM MgCl2, 1 mM sodium EDTA, 1 mM sodium EGTA, 1 mM dithiotreitol and 0.1 mM phenylmethylsulfonyl fluoride) supplemented with protease inhibitors (5 μg/ml pepstatin A, 10 μg/ml leupeptin and 2 μg/ml of aprotinin). The cells were left to sit on ice for 15 min and then centrifuged at 20,000 g for 20 min. The resulting supernatant was stored at −70° C. until measurement of cytochrome C. Protein determination was measured by using the Bradford assay. Equal amounts of protein were resolved by SDS-polyacrylamide gel electrophoresis in 15% gels and transferred onto nitro-cellulose. Membranes were blocked with phosphate-buffered saline/5% (w/v) dry milk and probed with anti-cytochrome C antibody. Blots were washed, incubated with goat anti-mouse IgG peroxidase conjugate and developed by ECL according to the manufacturer's recommendations.

NFκB = experiment: NF kappa B binding activity, Hut-78 cells
Experimental: Cells were fractionated, and nuclear extracts were prepared as described by Stylianou et al. (1992). Briefly, cells were added to ice-cold phosphate-buffered saline and centrifuged using a swing out rotor at 136×g. They were washed in buffer A (10 mM Hepes, pH 7.9, 1.5 mM MgCl2, 10 mM KCl, […] [PMSF]) and centrifuged at 10000×g for 10 min. They were treated with buffer A+0.1% (vol/vol) Nonidet P40 on ice for 10 min. They were then centrifuged at 10000×g for 10 min and the pellet was treated with buffer C (20 mM Hepes, pH 7.9, 420 mM NaCl, 1.5 mM MgCl2, 2 mM EDTA, 20% [vol/vol] glycerol, 0.5 mM PMSF) on ice for 15 min. This material was centrifuged at 10000×g for 10 min and the supernatant was added to 75 u l of buffer D [10 mM Hepes, pH 7.9, 50 mM KCl, 0.2 mM EDTA, 20% (vol/vol) glycerol, 0.5 mM PMSF] per sample. The protein concentration in this crude nuclear extract was determined using the method of Bradford (1976). Protein (4 μg) was incubated with 10000 cpm of a ^32P-labelled oligonucleotide, containing the consensus sequence for NF kappa B, with binding buffer [40% (vol/vol) glycerol, 1 mM EDTA, 10 mM Tris, pH 7.5, 100 mM NaCl, 0.1 mg/ml nuclease free BSA] and 2 μg of poly(dI-dC) at room temperature for 30 min. Samples were resolved on a 5% native polyacrylamide gel which was subsequently dried and autoradiographed at −70° C. overnight.

JNK1 and JNK2 = conditions: K562 cells
p38 = experiment: Western blot of p38 activation in K562 cells; conditions: K562, 5 min up to 8 hours
BCR-abl = experiment: Western blot analysis of BCR-abl in CML cells
[2] = system: tyrosine phosphorylated proteins; experiment: Protein tyrosine phosphorylation Western blot, K562 cells
Experimental: Jurkat and CML cells (5×10^6) were harvested by centrifuigation at 1800 g for 10 min at 4° C. After being washed once with ice-cold phosphate-buffered saline, the cell pellet was suspended in 100 μl of ice-cold lysis buffer (50 mM Tris-HCl, pH 8.0, 150 mM NaCl, 0.1%.SDS, 1% Triton X-100, 1 mM sodium 1 mM phenylmethylsulfonyl, 10 ng/ml leupeptin and 10 ng/ml of aprotinin). The cells were left to sit on ice for 10 min and then centrifuged at 20,000 g for 20 min. The resulting supernatant was stored at −70° C. until measurement of tyrosine phosphorylation. Protein determination was measured by using the Bradford assay. Equal amounts of protein were resolved by SDS-polyacrylamide gel electrophoresis in 15% gels and transferred onto polyvinylidene difluoride (PVDF) membranes. Membranes were blocked with Tris-buffered saline with Tween 20 (10 mM Tris-HCl, pH 8.0, 150 mM NaCl, 0.05% Tween 20) containing 1% w/v BSA and probed with anti-phosphotyrosine antibody. Blots were washed, incubated with goat anti-mouse IgG peroxidase conjugate and developed by ECL according to the manufacturer's recommendations.

Jurkat cells = conditions: 0.5 μM 1 hour, then etoposide 2.5 μM 1 hour
Experimental: (§1) This assay was set up as described by Kohn et al., 1976 with the following modifications.
(§2) Cells were seeded at 0.4×10^6 cells/ml and were in the logarithmic phase of growth. […] Cells harvested for the experiments were at a density of 2×10^6 cells/ml.
(§3) Cells (1×10^6) were labelled with [^3H] thymidine (sp. act. 2 Ci/mmol) (0.2 μCi/ml) and 1 μM unlabelled thymidine, and incubated for 20 hr. Cells were harvested by centrifugation at 500×g for 5 mins following by two washes in PBS and the pellet was resuspended in 3 ml of PBS. Cells were aliquoted into 1 ml amounts in a 24 well plate and allowed to recover for 1 hr at 37° C. before treating with indicated compounds. Following treatment, cells were washed once in PBS and resuspended in 250 μl of PBS. An aliquot of cells (200 μl) was loaded directly onto a 25 mm diameter glass fiber filter, pore size of 0.2 μM. The cells were lysed on the filter by the addition of 5 ml lysis buffer (2% (w/v) SDS, 10 mM disodium EDTA (pH 10) supplemented with 0.5 mg/ml proteinase K. The lysis buffer was allowed to flow slowly through the filter without suction. Filters were washed using 3 ml wash solution (0.02M Na3EDTA pH 10) allowing it to flow without suction. Filters were eluted in the dark with an alkaline solution (0.04M EDTA plus tetrapropylammonium hydroxide (10% in H2O ) added in the amount required to give pH 12.1). The elution apparatus consisted of a filter funnel with output tubing passing through a peristaltic pump to a collector. Elution took place overnight at a flow rate of 0.05 ml/min. Following elution, filters were treated with 0.4 ml HCl (1N) for 1 hr at 70° C. followed by 2.5 ml NaOH (0.4N) for 30 min at room temp. Scintillation fluid (10 ml) was added and radioactivity remaining on the filters was determined by scintillation counting.

K562 cells [3] = conditions: 3 hours
Experimental: as §1, §2, §3

[4] = system: CML cell lines K562, KYO.1 and Lama 84; experiment: Agarose gel electrophoresis of DNA ladders, CML cells; conditions: all three CML cell lines

## CN(C)C(=O)OC1=C(c2cccc3ccccc23)Oc2ccccc2-n2cccc21 [PBOX-6, 7-((Dimethylcarbamoyl)oxy)-6-(1-naphthyl)pyrrolo[2,1-d][1,5]benzoxazepine]
K562 cells [1]
  cells that had undergone apoptosis: 40-50%
Cytochrome C
  Cytochrome C in the cytosol: accumulation of Cytochrome C in the cytosol
NFκB
  effect on NFκB: had no effect on NFκB
JNK1 and JNK2
  time at which JNK activation first becomes visible: 15 min
  time of peak JNK activation: 30 to 45 min
p38
  activation of p38: failed to activate p38
BCR-abl; K562 and KYO.1 cells
  BCR-abl expression: downregulation of BCR-abl was detected, but not until 24 hours
BCR-abl; Lama 84 cells, up to 72 hours
  downregulation of BCR-abl: not detected
[2]; K562, 5, 15 or 30 min
  tyrosine phosphorylation status of proteins: no effect
[2]; K562, 16 hours, proteins approx 63 kDa and 71 kDa
  tyrosine phosphorylation status of proteins: increase in the phosphorylation of two proteins
Jurkat cells
  effect of pretreatment on etoposide induced DNA strand breaks: did not prevent the induction of DNA strand breaks by etoposide
K562 cells [3]
  DNA strand breaks: did not show any significant increase in DNA strand breaks
[4]
  internucleosomal DNA fragmentation (DNA ladders): DNA laddering pattern was visible
